Results taken from ChEMBL document CHEMBL5365529, “Construction and Evaluation of Novel Dual-function Antifungal Inhibitors and Covalent Organic Framework Carriers Based on the Infection Microenvironment” (J Med Chem, 2023).
pIC50: −log10 of the molar value. In brackets after ≈: the same amount, converted by molar mass. Activity calls are given as the source filed them. No cut-off for these calls is given here.

Assays:
Candida albicans [1] = assay: Induction of immunity in BALB/c mouse infected with Candida albicans 901 assessed as increase in CD3 positive level at 0.5 ug/g administered 6 times measured after 4 days by IHC analysis; assay type: functional, organism-based; conditions: dose 0.5 µg/g, time 4.0 day
Candida albicans [2] = assay: Induction of immunity in BALB/c mouse infected with Candida albicans 901 assessed as decrease in PD-L1 level at 0.5 ug/g administered 6 times measured after 4 days by Western blot analysis; assay type: functional, organism-based; conditions: dose 0.5 µg/g, time 4.0 day
[3] = Toxicity in BALB/c mouse infected with Candida albicans 901 assessed as plasma CRE level at 0.5 ug/g administered 6 times measured after 4 days (reference value: 18.48 +/- 2.7 umol/L); conditions: in vivo, 96 h, dose 0.5 µg/g, time 4 day
[4] = Toxicity in BALB/c mouse infected with Candida albicans 901 assessed as pathological change in liver at 0.5 ug/g administered 6 times measured after 4 days by H and E staining based analysis; assay type: tissue-based; conditions: in vivo, 96 h, dose 0.5 µg/g, time 4 day
Candida albicans [5] = assay: Antifungal activity against Candida albicans 901 infected in BALB/c mouse assessed as appearance of necrotic cell fragments in interstitial space at 0.5 ug/g administered 6 times measured after 4 days by H and E staining based analysis; assay type: functional, organism-based; conditions: dose 0.5 µg/g, time 4.0 day
[6] = Toxicity in BALB/c mouse infected with Candida albicans 901 assessed as plasma ALT level at 0.5 ug/g administered 6 times measured after 4 days (reference value: 30.4 +/- 4.6 IU/L); conditions: in vivo, 96 h, dose 0.5 µg/g, time 4 day
Aspergillus fumigatus = assay: Antifungal activity against Aspergillus fumigatus KM8001 assessed as fungal growth inhibition incubated for 72 hrs by CLSI based susceptibility test; assay type: functional
Candida albicans [7] = assay: Induction of immunity in BALB/c mouse infected with Candida albicans 901 assessed as decrease in PD-L1 level at 0.5 ug/g administered 6 times measured after 4 days by IHC analysis; assay type: functional, organism-based; conditions: dose 0.5 µg/g, time 4.0 day
Candida albicans [8] = assay: Induction of morphological changes in Candida albicans SC5314 assessed as necrotic cellular debris measured for 96 to 144 hrs by TEM analysis; assay type: functional, organism-based; conditions: time 96-144 hrs
Candida albicans [9] = assay: Induction of apoptosis in Candida albicans SC5314 assessed as increase in ROS level at 1 uM/ml incubated for 48 hrs by fluorescence microscopy; assay type: functional, organism-based
[10] = target: Programmed cell death 1 ligand 1 (Homo sapiens, UniProt Q9NZQ7); assay: Inhibition of human PD-L1 incubated for 15 mins by ELISA method
Sequence of Programmed cell death 1 ligand 1 (Q9NZQ7 whole entry): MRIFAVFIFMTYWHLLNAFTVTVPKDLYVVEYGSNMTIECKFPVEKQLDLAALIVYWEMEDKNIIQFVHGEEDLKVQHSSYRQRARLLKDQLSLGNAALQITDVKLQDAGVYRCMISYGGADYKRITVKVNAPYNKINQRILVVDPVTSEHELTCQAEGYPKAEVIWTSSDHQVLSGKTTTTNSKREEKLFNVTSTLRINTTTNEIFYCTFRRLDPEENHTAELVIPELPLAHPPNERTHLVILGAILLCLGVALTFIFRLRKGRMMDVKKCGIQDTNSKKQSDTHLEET

Candida albicans [11] = assay: Antifungal activity against Candida albicans 901 infected in BALB/c mouse assessed as inhibition of fungal proliferation at 0.5 ug/g administered 6 times measured after 4 days by GMS staining based analysis; assay type: functional, organism-based; conditions: dose 0.5 µg/g, time 4.0 day
[12] = target: T1, Lanosterol 14-alpha demethylase (Candida albicans (strain SC5314 / ATCC MYA-2876) (Yeast), UniProt P10613); assay: Inhibition of CYP51 in Candida albicans SC5314 using lanosterol as substrate incubated for 60 mins by HPLC analysis
T1 sequence (P10613 whole entry): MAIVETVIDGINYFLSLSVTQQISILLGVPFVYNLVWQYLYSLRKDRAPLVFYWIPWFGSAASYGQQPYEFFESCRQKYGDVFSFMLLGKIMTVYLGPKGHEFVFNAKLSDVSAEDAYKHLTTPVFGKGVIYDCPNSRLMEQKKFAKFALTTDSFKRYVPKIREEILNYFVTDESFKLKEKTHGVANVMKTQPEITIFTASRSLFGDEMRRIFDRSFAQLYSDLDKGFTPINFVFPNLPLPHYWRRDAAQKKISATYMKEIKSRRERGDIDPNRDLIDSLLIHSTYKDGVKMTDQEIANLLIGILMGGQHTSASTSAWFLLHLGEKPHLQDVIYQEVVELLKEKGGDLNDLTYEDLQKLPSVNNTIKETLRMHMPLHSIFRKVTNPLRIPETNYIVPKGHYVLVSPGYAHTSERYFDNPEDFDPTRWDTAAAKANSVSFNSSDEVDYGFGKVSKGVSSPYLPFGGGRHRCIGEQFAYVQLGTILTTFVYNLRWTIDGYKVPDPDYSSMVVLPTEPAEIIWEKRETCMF

[13] = target: T1, Lanosterol 14-alpha demethylase; assay: Inhibition of CYP51 in Candida albicans SC5314 assessed as lanosterol level at 4 ug/ml incubated for 16 hrs by GC-MS analysis relative to control; design: scale not given: the % may be the effect or the level left; conditions: at 4 µg/mL
Candida albicans [14] = assay: Induction of immunity in BALB/c mouse infected with Candida albicans 901 assessed as increase in CD8 positive level at 0.5 ug/g administered 6 times measured after 4 days by IHC analysis; assay type: functional, organism-based; conditions: dose 0.5 µg/g, time 4.0 day
Candida albicans [15] = assay: Induction of apoptosis in Candida albicans SC5314 assessed as necrotic cells incubated for 48 hrs by annexin V-FITC/PI staining based flow cytometry (reference value: 2.12 %); assay type: functional
Cryptococcus neoformans = assay: Antifungal activity against Cryptococcus neoformans ZKCC 2209 assessed as fungal growth inhibition incubated for 72 hrs by CLSI based susceptibility test; assay type: functional
[16] = target: T1, Lanosterol 14-alpha demethylase; assay: Inhibition of CYP51 in Candida albicans SC5314 assessed as ergosterol level at 4 ug/ml incubated for 16 hrs by GC-MS analysis (reference value: 92.07 %); design: scale not given: the % may be the effect or the level left; conditions: at 4 µg/mL
[17] = Toxicity in BALB/c mouse infected with Candida albicans 901 assessed as pathological change in spleen at 0.5 ug/g administered 6 times measured after 4 days by H and E staining based analysis; assay type: tissue-based; conditions: in vivo, 96 h, dose 0.5 µg/g, time 4 day
Mus musculus = assay: Antiinflammatory activity in BALB/c mouse infected with Candida albicans 901 assessed as decrease in IL-2 level at 0.5 ug/g administered 6 times measured after 4 days by IHC analysis; assay type: functional, organism-based; conditions: dose 0.5 µg/g, time 4.0 day
[18] = Drug uptake in Candida albicans SC5314 assessed as increase in red fluorescence by PI staining based imaging analysis; assay type: ADME

COC(=O)[C@@H](Cn1cncn1)NCc1cccc(OCc2cccc(-c3ccccc3)c2C)c1
Activity (Candida albicans [1]): Active
Activity (Candida albicans [2]): Active
Activity [3]: 10.91 µmol/L
Activity [4]: Non-Toxic
Activity (Candida albicans [5]): Active
Activity [6]: 21.5 IU/L
MIC50 (Aspergillus fumigatus): 2 mg/L (≈ 4.38 µM)
Activity (Candida albicans [7]): Active
Activity (Candida albicans [8]): Active
Activity (Candida albicans [9]): Active
pIC50 [10]: 7.68
inhibition (Candida albicans [11]): Active
pIC50 [12]: 6.77
Activity [13]: 10.47%
Activity (Candida albicans [14]): Active
Activity (Candida albicans [15]): 25.91%
MIC50 (Cryptococcus neoformans): 0.5 mg/L (≈ 1.1 µM)
Activity [16]: 9.72%
Activity [17]: Non-Toxic
Activity (Mus musculus): Active
Drug uptake [18]: Active
